Laboratory results taken from PubChem BioAssay AID1963850 (Molecular Pharmacology Branch, DTP, NCI, 2024).

Test system: 192522-019-R-J2-PDC complex tumor spheroid viability
Assay: Anticancer human tumor 192522-019-R-J2-PDC patient-derived colon adenocarcinoma cell line growth inhibition [POLQ]
Conditions: for IC50: curve of first compound; for viability, T/C: stronger effect = lower value
How it was run: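 Patient-derived tumour cells were co-cultured with HUVEC and mesenchymal stem cells as multicellular spheroids at 37 °C. They were treated with POLQ inhibitors (novobiocin, ART-558, RP6685) alone or combined with other agents. Top concentrations were at or near clinical Cmax (otherwise 10 microM; SN-38 at 1 microM), decreasing in half-log steps.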

[1] = second compound 0.0316 µM, first compound 0.0316 µM
[2] = second compound 0.0316 µM, first compound 0.1 µM
[3] = second compound 0.0316 µM, first compound 0.316 µM
[4] = second compound 0.0316 µM, first compound 1 µM
[5] = second compound 0.0316 µM, first compound 3.16 µM
[6] = second compound 0.0316 µM, first compound 10 µM
[7] = second compound 0.1 µM, first compound 0.0316 µM
[8] = second compound 0.1 µM, first compound 0.1 µM
[9] = second compound 0.1 µM, first compound 0.316 µM
[10] = second compound 0.1 µM, first compound 1 µM
[11] = second compound 0.1 µM, first compound 3.16 µM
[12] = second compound 0.1 µM, first compound 10 µM
[13] = second compound 0.316 µM, first compound 0.0316 µM
[14] = second compound 0.316 µM, first compound 0.1 µM
[15] = second compound 0.316 µM, first compound 0.316 µM
[16] = second compound 0.316 µM, first compound 1 µM
[17] = second compound 0.316 µM, first compound 3.16 µM
[18] = second compound 0.316 µM, first compound 10 µM
[19] = second compound 1 µM, first compound 0.0316 µM
[20] = second compound 1 µM, first compound 0.1 µM
[21] = second compound 1 µM, first compound 0.316 µM
[22] = second compound 1 µM, first compound 1 µM
[23] = second compound 1 µM, first compound 3.16 µM
[24] = second compound 1 µM, first compound 10 µM
[25] = second compound 3.16 µM, first compound 0.0316 µM
[26] = second compound 3.16 µM, first compound 0.1 µM
[27] = second compound 3.16 µM, first compound 0.316 µM
[28] = second compound 3.16 µM, first compound 1 µM
[29] = second compound 3.16 µM, first compound 3.16 µM
[30] = second compound 3.16 µM, first compound 10 µM
[31] = second compound 10 µM, first compound 0.0316 µM
[32] = second compound 10 µM, first compound 0.1 µM
[33] = second compound 10 µM, first compound 0.316 µM
[34] = second compound 10 µM, first compound 1 µM
[35] = second compound 10 µM, first compound 3.16 µM
[36] = second compound 10 µM, first compound 10 µM
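Further: spheroids exposed to drugs for seven days before reading.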
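Wherever viability, T/C is given: 100% = DMSO vehicle control viability in luminescence.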

C=CC(=O)N1CCN(c2nc(=O)n(-c3c(C)ccnc3C(C)C)c3nc(-c4c(O)cccc4F)c(F)cc23)C(C)C1 (stereo unspecified) + Cc1cccc(N(C)C(=O)C2C(O)CCN2c2nc(C)cc(C(F)(F)F)c2C#N)c1
IC50 (second compound 0.0316 µM): > 10 µM
IC50 (second compound 0.1 µM): > 10 µM
IC50 (second compound 0.316 µM): > 10 µM
IC50 (second compound 1 µM): > 10 µM
IC50 (second compound 3.16 µM): > 10 µM
IC50 (second compound 10 µM): > 10 µM
viability, T/C [1]: 114%
viability, T/C [2]: 85%
viability, T/C [3]: 101%
viability, T/C [4]: 93.8%
viability, T/C [5]: 109%
viability, T/C [6]: 97.9%
viability, T/C [7]: 106%
viability, T/C [8]: 91.4%
viability, T/C [9]: 98.8%
viability, T/C [10]: 103%
viability, T/C [11]: 100%
viability, T/C [12]: 110%
viability, T/C [13]: 95.2%
viability, T/C [14]: 96.9%
viability, T/C [15]: 100%
viability, T/C [16]: 105%
viability, T/C [17]: 101%
viability, T/C [18]: 103%
viability, T/C [19]: 102%
viability, T/C [20]: 105%
viability, T/C [21]: 109%
viability, T/C [22]: 106%
viability, T/C [23]: 102%
viability, T/C [24]: 110%
viability, T/C [25]: 102%
viability, T/C [26]: 96.5%
viability, T/C [27]: 108%
viability, T/C [28]: 98%
viability, T/C [29]: 106%
viability, T/C [30]: 113%
viability, T/C [31]: 107%
viability, T/C [32]: 101%
viability, T/C [33]: 107%
viability, T/C [34]: 113%
viability, T/C [35]: 114%
viability, T/C [36]: 107%

CC(C)n1c(=O)n(C)c2cnc3cc(F)c(-c4ccc(OCCCN5CCCCC5)nc4)cc3c21 + Cc1cccc(N(C)C(=O)C2C(O)CCN2c2nc(C)cc(C(F)(F)F)c2C#N)c1
IC50 (second compound 0.0316 µM): > 10 µM
IC50 (second compound 0.1 µM): > 10 µM
IC50 (second compound 0.316 µM): > 10 µM
IC50 (second compound 1 µM): > 10 µM
IC50 (second compound 3.16 µM): > 10 µM
IC50 (second compound 10 µM): > 10 µM
viability, T/C [1]: 113%
viability, T/C [2]: 87%
viability, T/C [3]: 102%
viability, T/C [4]: 103%
viability, T/C [5]: 116%
viability, T/C [6]: 99.3%
viability, T/C [7]: 104%
viability, T/C [8]: 99%
viability, T/C [9]: 107%
viability, T/C [10]: 107%
viability, T/C [11]: 99.8%
viability, T/C [12]: 99.5%
viability, T/C [13]: 94%
viability, T/C [14]: 98.4%
viability, T/C [15]: 108%
viability, T/C [16]: 105%
viability, T/C [17]: 127%
viability, T/C [18]: 104%
viability, T/C [19]: 98.9%
viability, T/C [20]: 110%
viability, T/C [21]: 106%
viability, T/C [22]: 123%
viability, T/C [23]: 116%
viability, T/C [24]: 105%
viability, T/C [25]: 92%
viability, T/C [26]: 103%
viability, T/C [27]: 114%
viability, T/C [28]: 118%
viability, T/C [29]: 134%
viability, T/C [30]: 105%
viability, T/C [31]: 105%
viability, T/C [32]: 94.1%
viability, T/C [33]: 117%
viability, T/C [34]: 114%
viability, T/C [35]: 120%
viability, T/C [36]: 110%

CC1COCCN1c1cc(C2(S(C)(=N)=O)CC2)nc(-c2ccnc3[nH]ccc23)n1 (stereo unspecified) + Cc1cccc(N(C)C(=O)C2C(O)CCN2c2nc(C)cc(C(F)(F)F)c2C#N)c1
IC50 (second compound 0.0316 µM): 4.75 µM
IC50 (second compound 0.1 µM): 4.15 µM
IC50 (second compound 0.316 µM): 5.85 µM
IC50 (second compound 1 µM): 5.72 µM
IC50 (second compound 3.16 µM): 7.68 µM
IC50 (second compound 10 µM): 7.21 µM
viability, T/C [1]: 112%
viability, T/C [2]: 88%
viability, T/C [3]: 92.8%
viability, T/C [4]: 83.8%
viability, T/C [5]: 59.9%
viability, T/C [6]: 30.1%
viability, T/C [7]: 101%
viability, T/C [8]: 97.8%
viability, T/C [9]: 97.7%
viability, T/C [10]: 89.2%
viability, T/C [11]: 54.8%
viability, T/C [12]: 34.2%
viability, T/C [13]: 106%
viability, T/C [14]: 105%
viability, T/C [15]: 105%
viability, T/C [16]: 90.1%
viability, T/C [17]: 64.5%
viability, T/C [18]: 37.6%
viability, T/C [19]: 97.6%
viability, T/C [20]: 99.2%
viability, T/C [21]: 96%
viability, T/C [22]: 98.1%
viability, T/C [23]: 64.3%
viability, T/C [24]: 36.5%
viability, T/C [25]: 104%
viability, T/C [26]: 100%
viability, T/C [27]: 103%
viability, T/C [28]: 91.9%
viability, T/C [29]: 78.7%
viability, T/C [30]: 41.4%
viability, T/C [31]: 95.5%
viability, T/C [32]: 106%
viability, T/C [33]: 113%
viability, T/C [34]: 98.9%
viability, T/C [35]: 75.7%
viability, T/C [36]: 39.8%
